Data reported in patent US11000033B2, “Ketone or oxime compound, and herbicide” (NISSAN CHEMICAL CORPORATION, priority 2014, dated 2021).

How the values were obtained:
Assay type in all cases: in vivo
Stellaria media = assay: Test Example 4: herbicidal effect by soil treatment (symbol P); conditions: 320 g/ha
How it was run: (§1)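 Seeds were sown in sterilized diluvial soil, covered with about 1.5 cm of soil, and the soil surface was sprayed with a water-diluted emulsion of the compound at a predetermined rate. Plants grew in a greenhouse at 25° C. to 30° C.; effects were scored visually 3 weeks after application.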

Lolium multiflorum Lam. = assay: Test Example 5: herbicidal effect by foliage application, plastic box (symbol K); conditions: 320 g/ha, 3 weeks after application
How it was run: (§2)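 Herbicide, formulated as an emulsion and diluted in water, is sprayed onto the aerial parts of 14-day seedlings. These were grown at 25° C. to 30° C. in sterilized diluvial soil; effects are graded after 3 weeks.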

Abutilon theophrasti = assay: Test Example 4: herbicidal effect by soil treatment (symbol M); conditions: 320 g/ha
How it was run: as §1

Monochoria vaginalis = assay: Test Example 1: herbicidal activity, application before weed generation in submerged conditions (symbol C); conditions: application herbicide amount 320 g/ha
How it was run: (§3)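 Greenhouse growth at 25–30 °C lasted 3 weeks after treatment, when each weed was graded 0–5 by herbicidal ratio. Treatment was a diluted emulsion applied to the water surface of 4 cm-submerged alluvial soil on the sowing day.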

Veronica persica = assay: Test Example 4: herbicidal effect by soil treatment (symbol R); conditions: 320 g/ha
How it was run: as §1

Digitaria ciliaris = assay: Test Example 5: herbicidal effect by foliage application, plastic box (symbol F); conditions: 320 g/ha, 3 weeks after application
How it was run: as §2

rapeseed = assay: Test Example 5: effect on crop by foliage application, plastic box (symbol g); conditions: 320 g/ha, 3 weeks after application
How it was run: (§4)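 Foliage-application test plants come from spot sowing in sterilized diluvial soil under a soil layer of about 1.5 cm, grown at 25° C. to 30° C. in a greenhouse.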

wheat = assay: Test Example 5: effect on crop by foliage application, plastic box (symbol e); conditions: 320 g/ha, 3 weeks after application
How it was run: as §4

Apera spica-venti [1] = assay: Test Example 4: herbicidal effect by soil treatment (symbol L); conditions: 320 g/ha
How it was run: as §1

Setaria viridis = assay: Test Example 4: herbicidal effect by soil treatment (symbol G); conditions: 320 g/ha
How it was run: as §1

Avena fatua = assay: Test Example 5: herbicidal effect by foliage application, plastic box (symbol I); conditions: 320 g/ha, 3 weeks after application
How it was run: as §2

Scirpus juncoides = assay: Test Example 1: herbicidal activity, application before weed generation in submerged conditions (symbol B); conditions: application herbicide amount 320 g/ha
How it was run: as §3

[2] = test system: Echinochloa oryzacola Vasing.; assay: Test Example 1: herbicidal activity, application before weed generation in submerged conditions (symbol A); conditions: application herbicide amount 320 g/ha
How it was run: as §3

[3] = test system: directly sowed rice plant; assay: Test Example 3: effect on crop by foliage application, Wagner pot (symbol b); conditions: application herbicide amount 320 g/ha
How it was run: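 Greenhouse culture at 25–30 °C of seeded rice, Cyperus difformis, Leptochloa chinensis and Echinochloa crus-galli var. crus-galli, in alluvial soil held under 0.1–0.5 cm of water in a Wagner pot.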

Galium spurium [4] = assay: Test Example 4: herbicidal effect by soil treatment (symbol Q); conditions: 320 g/ha
How it was run: as §1

transplanted rice plant = assay: Test Example 1: effect on crop, application before weed generation in submerged conditions (symbol a); conditions: application herbicide amount 320 g/ha
How it was run: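 Rice at 2.5 leaf stage transplanted into submerged soil (4 cm depth) sown with three weed species; herbicide applied before weed emergence.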

Galium spurium [5] = assay: Test Example 5: herbicidal effect by foliage application, plastic box (symbol Q); conditions: 320 g/ha, 3 weeks after application
How it was run: as §2

Apera spica-venti [6] = assay: Test Example 5: herbicidal effect by foliage application, plastic box (symbol L); conditions: 320 g/ha, 3 weeks after application
How it was run: as §2

Compound	P: Stellaria media, herbicidal effect grade (Stellaria media)	K: Lolium multiflorum Lam., herbicidal effect (criteria 0-5) (Lolium multiflorum Lam.)	M: Abutilon theophrasti, herbicidal effect grade (Abutilon theophrasti)	Herbicidal effect grade, C: Monochoria vaginalis (Monochoria vaginalis)	R: Veronica persica, herbicidal effect grade (Veronica persica)	F: Digitaria ciliaris, herbicidal effect (criteria 0-5) (Digitaria ciliaris)	g: rapeseed, effect on crop (criteria 0-5) (rapeseed)	e: wheat, effect on crop (criteria 0-5) (wheat)	L: Apera spica-venti, herbicidal effect grade (Apera spica-venti [1])	G: Setaria viridis, herbicidal effect grade (Setaria viridis)	I: Avena fatua, herbicidal effect (criteria 0-5) (Avena fatua)	Herbicidal effect grade, B: Scirpus juncoides (Scirpus juncoides)	Herbicidal effect grade, A: Echinochloa oryzacola Vasing. [2]	effect on crop b (directly sowed rice plant), grade 0-5 [3]	Q: Galium spurium, herbicidal effect grade (Galium spurium [4])	Effect grade on crop, a: transplanted rice plant (transplanted rice plant)	Q: Galium spurium, herbicidal effect (criteria 0-5) (Galium spurium [5])	L: Apera spica-venti, herbicidal effect (criteria 0-5) (Apera spica-venti [6])
CC(CC1CC(O)=C(c2c(C)cc(C)cc2C)C1=O)=NOCC[S+](C)[O-] (stereo not drawn) [1-125]	0 (Herbicidal ratio of 5% or lower (almost no effect))	5 (Herbicidal ratio of 90% or more (almost completely withered))	0 (Herbicidal ratio of 5% or lower (almost no effect))	1 (Herbicidal ratio of 5% or higher and lower than 20%)	0 (Herbicidal ratio of 5% or lower (almost no effect))	5 (Herbicidal ratio of 90% or more (almost completely withered))	3 (Herbicidal ratio of 40% or higher and lower than 70%)	5 (Herbicidal ratio of 90% or more (almost completely withered))	5 (Herbicidal ratio of 90% or more (almost completely withered))	5 (Herbicidal ratio of 90% or more (almost completely withered))	5 (Herbicidal ratio of 90% or more (almost completely withered))	0 (Herbicidal ratio of 5% or lower (almost no effect))	3 (Herbicidal ratio of 40% or higher and lower than 70%)	5 (Herbicidal ratio of 90% or more (almost completely withered))	0 (Herbicidal ratio of 5% or lower (almost no effect))	5 (Herbicidal ratio of 90% or more (almost completely withered))	3 (Herbicidal ratio of 40% or higher and lower than 70%)	5 (Herbicidal ratio of 90% or more (almost completely withered))
CON=C(C)CC1CC(OC(=O)N(C)CCCCCl)=C(c2c(C)cc(C)cc2C)C1=O (stereo not drawn) [1-126]	0 (Herbicidal ratio of 5% or lower (almost no effect))	5 (Herbicidal ratio of 90% or more (almost completely withered))	0 (Herbicidal ratio of 5% or lower (almost no effect))	0 (Herbicidal ratio of 5% or lower (almost no effect))	0 (Herbicidal ratio of 5% or lower (almost no effect))	3 (Herbicidal ratio of 40% or higher and lower than 70%)	4 (Herbicidal ratio of 70% or higher and lower than 90%)	0 (Herbicidal ratio of 5% or lower (almost no effect))	0 (Herbicidal ratio of 5% or lower (almost no effect))	0 (Herbicidal ratio of 5% or lower (almost no effect))	3 (Herbicidal ratio of 40% or higher and lower than 70%)	0 (Herbicidal ratio of 5% or lower (almost no effect))	4 (Herbicidal ratio of 70% or higher and lower than 90%)	5 (Herbicidal ratio of 90% or more (almost completely withered))	0 (Herbicidal ratio of 5% or lower (almost no effect))	3 (Herbicidal ratio of 40% or higher and lower than 70%)	0 (Herbicidal ratio of 5% or lower (almost no effect))	3 (Herbicidal ratio of 40% or higher and lower than 70%)
C=C(C)CN(CC)C(=O)OC1=C(c2c(C)cc(C)cc2C)C(=O)C(CC(C)=NOC)C1 (stereo not drawn) [1-130]	0 (Herbicidal ratio of 5% or lower (almost no effect))	5 (Herbicidal ratio of 90% or more (almost completely withered))	0 (Herbicidal ratio of 5% or lower (almost no effect))	0 (Herbicidal ratio of 5% or lower (almost no effect))	0 (Herbicidal ratio of 5% or lower (almost no effect))	4 (Herbicidal ratio of 70% or higher and lower than 90%)	5 (Herbicidal ratio of 90% or more (almost completely withered))	2 (Herbicidal ratio of 20% or higher and lower than 40%)	3 (Herbicidal ratio of 40% or higher and lower than 70%)	0 (Herbicidal ratio of 5% or lower (almost no effect))	5 (Herbicidal ratio of 90% or more (almost completely withered))	0 (Herbicidal ratio of 5% or lower (almost no effect))	3 (Herbicidal ratio of 40% or higher and lower than 70%)	5 (Herbicidal ratio of 90% or more (almost completely withered))	0 (Herbicidal ratio of 5% or lower (almost no effect))	3 (Herbicidal ratio of 40% or higher and lower than 70%)	0 (Herbicidal ratio of 5% or lower (almost no effect))	5 (Herbicidal ratio of 90% or more (almost completely withered))
CCC(Oc1ccc2ncc(Br)cc2c1)C(=O)OC1=C(c2c(C)cc(C)cc2C)C(=O)C(CC(C)=NOC)C1 (stereo not drawn) [1-140]	0 (Herbicidal ratio of 5% or lower (almost no effect))	5 (Herbicidal ratio of 90% or more (almost completely withered))	5 (Herbicidal ratio of 90% or more (almost completely withered))	1 (Herbicidal ratio of 5% or higher and lower than 20%)	0 (Herbicidal ratio of 5% or lower (almost no effect))	5 (Herbicidal ratio of 90% or more (almost completely withered))	5 (Herbicidal ratio of 90% or more (almost completely withered))	5 (Herbicidal ratio of 90% or more (almost completely withered))	5 (Herbicidal ratio of 90% or more (almost completely withered))	5 (Herbicidal ratio of 90% or more (almost completely withered))	5 (Herbicidal ratio of 90% or more (almost completely withered))	5 (Herbicidal ratio of 90% or more (almost completely withered))	5 (Herbicidal ratio of 90% or more (almost completely withered))	5 (Herbicidal ratio of 90% or more (almost completely withered))	0 (Herbicidal ratio of 5% or lower (almost no effect))	5 (Herbicidal ratio of 90% or more (almost completely withered))	2 (Herbicidal ratio of 20% or higher and lower than 40%)	5 (Herbicidal ratio of 90% or more (almost completely withered))
